Consider 14 compounds from ChEMBL document CHEMBL5390223, “Strategies for the Discovery of Oxazolidinone Antibacterial Agents: Development and Future Perspectives” (J Med Chem, 2023).

Series [1] relates to Staphylococcus aureus. Description: Antibacterial activity against methicillin-resistant Staphylococcus aureus ATCC 33592 assessed as reduction in bacterial cell growth incubated for 18 hrs by microplate reader assay. The series is classed as functional.
Series [2] has as its system Staphylococcus aureus. The series can be described thus: Antibacterial activity against methicillin-susceptible Staphylococcus aureus […] assessed as reduction in bacterial cell growth incubated for 18 hrs by microplate reader assay. The series is classed as functional.
The test system of series [3] is Enterococcus faecium. The series can be described thus: Antimicrobial activity against Vancomycin-resistant Enterococcus faecium ATCC 700221 assessed as growth inhibition after 14 to 16 hrs by CLSI based broth dilution method. The series is classed as functional. Conditions: time 14-16 hrs. (In general: Broth dilution looks for growth in wells or tubes with falling amounts of substance.)

For another series, the system named is Enterococcus. Description: Antibacterial activity against vancomycin-resistant Enterococci assessed as reduction in bacterial cell growth incubated for 24 hrs by CLSI-microbroth dilution method. Format: functional.
Series [4] concerns Moraxella catarrhalis. Description: Antibacterial activity against Moraxella catarrhalis ATCC 8176 assessed as inhibition in bacterial growth measured after 24 hrs by broth microdilution method. Format: functional.
The subject of series [5] is Moraxella catarrhalis. The series can be described thus: Antibacterial activity against Moraxella catarrhalis assessed as inhibition of bacterial growth measured after 24 hrs by broth microdilution method. The series is classed as functional.
For series [6], the system named is Escherichia coli. The series can be described thus: Antibacterial activity against Escherichia coli assessed as inhibition of bacterial cell growth measured after 24 hrs by broth microdilution method. The series is classed as functional.
The next series relates to Haemophilus influenzae. The series can be described thus: Antibacterial activity against Haemophilus influenzae assessed as reduction in bacterial cell growth measured after 24 hrs by broth microdilution method. Format: functional.
For series [7], the system named is Streptococcus pneumoniae. Description: Antibacterial activity against Streptococcus pneumoniae assessed as reduction in bacterial cell growth measured after 24 hrs by broth microdilution method. The series is classed as functional.
Series [8] concerns Staphylococcus aureus. The series can be described thus: Antibacterial activity against methicillin-susceptible Staphylococcus aureus infected in Swiss albino mouse assessed as reduction in bacterial growth by measuring effective dose administered orally 2 to 4 times a day for 2 consecutive days. Conditions: route po. The series is classed as functional.
Series [9] has as its system Enterococcus faecalis. Description: Antibacterial activity against vancomycin-resistant Enterococcus faecalis […] infected in Swiss albino mouse assessed as reduction in bacterial growth by measuring effective dose administered orally 2 to 4 times a day for 2 consecutive days. The series is classed as functional. Conditions: route po.
Series [10] has as its system Staphylococcus aureus. Description: Antibacterial activity against Staphylococcus aureus ATCC 25923 assessed as reduction in microbial growth incubated for 24 hrs by micro-plate reader assay. Format: functional.
Series [11] has as its system Staphylococcus aureus. The series can be described thus: Antibacterial activity against Staphylococcus aureus HG001 assessed as reduction in bacterial cell growth incubated for 18 hrs by two-fold serial dilution method. Format: functional.
The test system of a further series is Pseudomonas aeruginosa. The series can be described thus: Antibacterial activity against Pseudomonas aeruginosa PAO1 assessed as bacterial growth inhibition incubated for 18 hrs by two-fold serial dilution method. The series is classed as functional.
The test system of series [12] is Mycobacterium tuberculosis. Description: Antimycobacterial activity against Mycobacterium tuberculosis H37Rv assessed as reduction in bacterial cell growth incubated for 6 days by Alamar blue staining based assay. Format: functional. Conditions: 144 h, time 6 day. In general terms: Resazurin is reduced to fluorescent resorufin, in cell work by metabolically active cells.

Series [13] has as its system Escherichia coli. Description: Antibacterial activity against Escherichia coli Delta tolC mutant assessed as bacterial growth inhibition incubated for 24 hrs by broth microdilution method. The series is classed as functional.
For series [14], the system named is Staphylococcus aureus. The series can be described thus: Antibacterial activity against Staphylococcus aureus ATCC 25923 assessed as reduction in bacterial growth incubated for 18 to 24 hrs by microbroth dilution method. The series is classed as functional. Conditions: time 18-24 hrs.
Series [15] relates to Enterococcus faecium. The series can be described thus: Antibacterial activity against Enterococcus faecium ATCC 19434 assessed as reduction in microbial growth after 24 hrs by two-fold serial dilution method. Format: functional.
The subject of series [16] is Streptococcus pneumoniae. Description: Antibacterial activity against Streptococcus pneumoniae assessed as reduction in bacterial cell growth inhibition by broth microdilution method. Format: functional.
Series [17] concerns the target T1, Amine oxidase [flavin-containing] B (Homo sapiens, UniProt P27338).
T1 sequence (P27338 whole entry): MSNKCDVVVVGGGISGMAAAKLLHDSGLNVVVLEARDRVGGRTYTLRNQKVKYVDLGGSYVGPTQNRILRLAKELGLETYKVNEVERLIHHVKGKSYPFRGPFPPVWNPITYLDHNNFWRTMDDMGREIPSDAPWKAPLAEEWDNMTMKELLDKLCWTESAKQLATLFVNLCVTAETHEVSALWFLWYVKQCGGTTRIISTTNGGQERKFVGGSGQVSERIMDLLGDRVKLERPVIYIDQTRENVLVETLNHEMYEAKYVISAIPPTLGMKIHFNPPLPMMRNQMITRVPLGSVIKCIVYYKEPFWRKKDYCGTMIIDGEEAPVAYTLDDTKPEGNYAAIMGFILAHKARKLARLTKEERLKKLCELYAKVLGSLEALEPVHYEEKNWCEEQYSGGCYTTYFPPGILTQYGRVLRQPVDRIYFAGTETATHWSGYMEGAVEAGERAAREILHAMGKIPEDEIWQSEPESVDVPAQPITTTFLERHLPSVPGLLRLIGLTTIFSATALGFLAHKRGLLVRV
The series can be described thus: Inhibition of MAO-B (unknown origin).

Series [18] deals with Staphylococcus aureus. The series can be described thus: Antimicrobial activity against methicillin-resistant Staphylococcus aureus assessed as microbial growth inhibition. Format: functional.
The subject of series [19] is Staphylococcus aureus. Description: Antibacterial activity against methicillin-susceptible Staphylococcus aureus assessed as reduction in bacterial cell growth. The series is classed as functional.
The test system of series [20] is Enterococcus faecium. Description: Antimicrobial activity against Vancomycin-resistant Enterococcus faecium ATCC 51559 assessed as growth inhibition after 14 to 16 hrs by CLSI based broth dilution method. Conditions: time 14-16 hrs. The series is classed as functional.
In series [21] the test system is Staphylococcus aureus. The series can be described thus: Antibacterial activity against methicillin-resistant Staphylococcus aureus […] assessed as inhibition of bacterial growth incubated for 24 hrs by microplate reader assay. Format: functional.
Series [22] deals with Enterococcus faecalis. The series can be described thus: Antibacterial activity against vancomycin-resistant Enterococcus faecalis ATCC 51299 assessed as reduction in bacterial cell growth incubated for 24 hrs by broth microdilution method. Format: functional.
Series [23] concerns Enterococcus faecium. The series can be described thus: Antibacterial activity against vancomycin-resistant Enterococcus faecium infected in mouse assessed as reduction in bacterial growth by measuring effective dose administered orally. The series is classed as functional. Conditions: route po.
The test system of series [24] is Staphylococcus aureus. Description: Antibacterial activity against methicillin-resistant Staphylococcus aureus infected in mouse assessed as reduction in bacterial growth by measuring effective dose administered orally. The series is classed as functional. Conditions: route po.
For series [25], the system named is Staphylococcus aureus. The series can be described thus: Antibacterial activity against methicillin-susceptible Staphylococcus aureus infected in mouse assessed as reduction in bacterial growth by measuring effective dose administered orally. Format: functional. Conditions: route po.
Series [26] in a line: Oral bioavailability in rat at 2 mg/kg. Format: ADME, organism-based. Conditions: in vivo.
Series [27] is described as follows: Plasma protein binding in rat plasma at 10 mg/kg by LC-MS/MS analysis. The series is classed as ADME, organism-based. Conditions: read-out: PPB (converted).

≈ marks a conversion by molar mass, not a printed value. A value given as a limit tells only on which side of the number the result lay.

Consider `O=C1O[C@@H](Cn2ccnn2)CN1c1ccc(N2CCOCC2)c(F)c1`, for which the MIC in the series on Staphylococcus aureus [1], in the series with Staphylococcus aureus [2] and in the series on Enterococcus faecium [3] was 0.5 µg/mL (≈ 1.44 µM) in each case.

Turning to `O=C(NCC(=O)N1CCN(c2ccc(N3C[C@H](Cn4ccnn4)OC3=O)cc2F)CC1)c1ccc([N+](=O)[O-])o1`, the MIC in the series with Enterococcus came out at 0.06 µg/mL (≈ 0.111 µM); in the series with Moraxella catarrhalis [4] it was 0.25 µg/mL (≈ 0.461 µM); in the series on Moraxella catarrhalis [5] it was 0.06 µg/mL (≈ 0.111 µM); in the series with Escherichia coli [6], 0.06 µg/mL (≈ 0.111 µM); in the series on Haemophilus influenzae, 0.06 µg/mL (≈ 0.111 µM); with Streptococcus pneumoniae [7] it was 0.06 µg/mL (≈ 0.111 µM).

As for `CC(=O)NC[C@H]1CN(c2ccc(-c3cnc(-n4cncn4)nc3)c(F)c2)C(=O)O1`, the ED50 in the series on Staphylococcus aureus [8] turned out to be 4.2 mg/kg; with Enterococcus faecalis [9], 8.6 mg/kg. In addition, the MIC in the series with Staphylococcus aureus [10] turned out to be 0.125 µg/mL.

With `CC(=O)NC[C@H]1CN(c2ccc(N3CCN(C(=O)OCn4cc(CNC(=O)C(CNC(=O)C(CNC(=O)CNC(=O)c5cccc(O)c5O)NC(=O)c5cccc(O)c5O)NC(=O)c5cccc(O)c5O)nn4)CC3)c(F)c2)C(=O)O1` (stereo partly drawn), the MIC is 16 µM (≈ 18 µg/mL) in the series with Staphylococcus aureus [11] and more than 64 µM in the series on Pseudomonas aeruginosa.

Take `CC(=O)NC[C@H]1CN(c2ccc(N3CCN(C(=O)CN(CCCNC(=O)c4cccc(O)c4O)C(=O)c4cccc(O)c4O)CC3)c(F)c2)C(=O)O1`: the MIC in the series on Staphylococcus aureus [11] was 64 µM (≈ 46.3 µg/mL); in the series on Pseudomonas aeruginosa it was more than 64 µM.

Take `CC(=O)NC[C@H]1CN(c2ccc(-c3ccc(CO[C@@H]4COc5nc([N+](=O)[O-])cn5C4)nc3)c(F)c2)C(=O)O1`: the MIC in [12] turned out to be 0.15 µg/mL (≈ 0.285 µM).

`CC(=O)NC[C@H]1CN(c2ccc(N3CCN(C(=O)COCCOCCn4cc(CNC(=O)C(CCCCNC(=O)c5cccc(O)c5O)NC(=O)c5cccc(O)c5O)nn4)CC3)c(F)c2)C(=O)O1` (stereo partly drawn): the values for the MIC with Staphylococcus aureus [11] and in the series with Pseudomonas aeruginosa were 64 µM (≈ 61.6 µg/mL) and more than 64 µM, respectively.

For the compound `CSCC[C@H](NC(=O)[C@H](Cc1ccc(O)cc1)NC(=O)[C@H](CCCCN)NC(=O)[C@@H]1CCCN1C(=O)[C@H](CO)NC(=O)[C@H](Cc1c[nH]c2ccccc12)NCC(=O)N(CCCCNC(=O)c1cccc(O)c1O)C(=O)c1cccc(O)c1O)C(=O)NCC(=O)N1CCN(c2ccc(N3C[C@H](CNC(C)=O)OC3=O)cc2F)CC1`, in the series with Escherichia coli [13], the MIC was determined as 1 µM (≈ 1.59 µg/mL).

For `CC(=O)NC[C@H]1CN(c2ccc(N3CCN(C(=O)COCCOCCn4cc(CNC(=O)C(CNC(=O)C(CNC(=O)CNC(=O)c5cccc(O)c5O)NC(=O)c5cccc(O)c5O)NC(=O)c5cccc(O)c5O)nn4)CC3)c(F)c2)C(=O)O1` (stereo partly drawn), the MIC is 64 µM (≈ 76.8 µg/mL) in the series with Staphylococcus aureus [11] and more than 64 µM in the series with Pseudomonas aeruginosa.

Regarding `CC(=O)NC[C@H]1CN(c2ccc(N3CCN(C(=O)OCn4cc(CNC(=O)C(CCCCNC(=O)c5cccc(O)c5O)NC(=O)c5cccc(O)c5O)nn4)CC3)c(F)c2)C(=O)O1` (stereo partly drawn), the values for the MIC in the series with Staphylococcus aureus [11] and with Pseudomonas aeruginosa were 64 µM (≈ 57 µg/mL) and more than 64 µM, respectively.

Consider `O=C1C=CN(c2c(F)cc(N3C[C@H](CNc4ccon4)OC3=O)c(F)c2F)CC1` [CONTEZOLID], for which the MIC in the series on Staphylococcus aureus [14] amounted to 0.06 µg/mL (≈ 0.147 µM); with Enterococcus faecium [15], 0.06 µg/mL; in the series on Streptococcus pneumoniae [16], 0.06 µg/mL (≈ 0.147 µM). The IC50 in series [17] was 30.1 µM.

For the compound `CC(=O)NC[C@H]1CN(c2ccc(N3CCN(C(=O)CO)CC3)c(F)c2)C(=O)O1` [EPEREZOLID], the MIC with Staphylococcus aureus [18], with Staphylococcus aureus [19] and in the series with Enterococcus faecium [20] was 1 µg/mL (≈ 2.54 µM) throughout.

For the compound `CC(=O)NC[C@H]1CN(c2ccc(N3CCN(Cc4ccc([N+](=O)[O-])o4)CC3)c(F)c2)C(=O)O1` [RANBEZOLID], the MIC with Staphylococcus aureus [21] and in the series with Enterococcus faecalis [22] was 0.125 µg/mL (≈ 0.271 µM) throughout.

As to `Cn1nnc(-c2ccc(-c3ccc(N4C[C@H](CO)OC4=O)cc3F)cn2)n1` [TEDIZOLID], the ED50 with Enterococcus faecium [23], in the series on Staphylococcus aureus [24] and in the series with Staphylococcus aureus [25] was 8.8 mg/kg throughout. This compound came in with a bioavailability in series [26] of 91%. Also, in series [27], the fraction unbound is 0.3.

A word on the ED50: it is the dose that gives a 50% effect, or the effect in half of the subjects. As a reminder, the IC50 is the concentration that inhibits the measured activity by half. A higher IC50 goes with a need for much substance. As usually defined, the bioavailability is dose-corrected exposure relative to a reference, in per cent. The low end stands for poor availability, the high end for good availability.
